Tested on: T-47D spheroids with HUVEC/MSC, viability
Experiment: Anticancer human tumor T-47D cell line growth inhibition [PI3K];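 note: spheroids exposed to agents for seven days before reading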;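 for viability, T/C: percent of DMSO vehicle control luminescence so 100% = untreated growth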
Settings: for IC50: curve of first compound; for viability, T/C: stronger effect = lower value; active = viability on the fitted dose curve at most 10% of control; inactive = the rest
Summary of the method: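 High-throughput combination screen: PI3K inhibitors crossed with targeted small molecules on complex spheroids of tumor cells, HUVEC and MSCs at 37 degrees C, 5% CO2. Top concentration was at or near clinical Cmax (otherwise 10 microM), with half-log decrements.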

[1] = second compound 0.00316 µM, first compound 0.0316 µM
[2] = second compound 0.00316 µM, first compound 0.1 µM
[3] = second compound 0.00316 µM, first compound 0.316 µM
[4] = second compound 0.00316 µM, first compound 1 µM
[5] = second compound 0.00316 µM, first compound 3.16 µM
[6] = second compound 0.00316 µM, first compound 10 µM
[7] = second compound 0.01 µM, first compound 0.0316 µM
[8] = second compound 0.01 µM, first compound 0.1 µM
[9] = second compound 0.01 µM, first compound 0.316 µM
[10] = second compound 0.01 µM, first compound 1 µM
[11] = second compound 0.01 µM, first compound 3.16 µM
[12] = second compound 0.01 µM, first compound 10 µM
[13] = second compound 0.0316 µM, first compound 0.0316 µM
[14] = second compound 0.0316 µM, first compound 0.1 µM
[15] = second compound 0.0316 µM, first compound 0.316 µM
[16] = second compound 0.0316 µM, first compound 1 µM
[17] = second compound 0.0316 µM, first compound 3.16 µM
[18] = second compound 0.0316 µM, first compound 10 µM
[19] = second compound 0.1 µM, first compound 0.0316 µM
[20] = second compound 0.1 µM, first compound 0.1 µM
[21] = second compound 0.1 µM, first compound 0.316 µM
[22] = second compound 0.1 µM, first compound 1 µM
[23] = second compound 0.1 µM, first compound 3.16 µM
[24] = second compound 0.1 µM, first compound 10 µM
[25] = second compound 0.316 µM, first compound 0.0316 µM
[26] = second compound 0.316 µM, first compound 0.1 µM
[27] = second compound 0.316 µM, first compound 0.316 µM
[28] = second compound 0.316 µM, first compound 1 µM
[29] = second compound 0.316 µM, first compound 3.16 µM
[30] = second compound 0.316 µM, first compound 10 µM
[31] = second compound 1 µM, first compound 0.0316 µM
[32] = second compound 1 µM, first compound 0.1 µM
[33] = second compound 1 µM, first compound 0.316 µM
[34] = second compound 1 µM, first compound 1 µM
[35] = second compound 1 µM, first compound 3.16 µM
[36] = second compound 1 µM, first compound 10 µM

CC1(C)CCC(Nc2ncc(C(F)(F)F)c(-c3c[nH]c4c(P(C)(C)=O)c(C#N)ccc34)n2)CN1 (stereo not drawn) + COc1c(OCCCN2CCOCC2)ccc2c3n(c(=NC(=O)c4cnc(N)nc4)nc12)CCN3
< 0.0316 µM: IC50 (second compound 0.0316 µM) | IC50 (second compound 0.1 µM) | IC50 (second compound 0.316 µM) | IC50 (second compound 1 µM)
active: viability, T/C [30] 3.95% | viability, T/C [32] 12.8% | viability, T/C [33] 8.27% | viability, T/C [34] 7.59% | viability, T/C [35] 10.4% | viability, T/C [36] 2.66%
> 10 µM: IC50 (second compound 0.00316 µM) | IC50 (second compound 0.01 µM)
inactive: viability, T/C [1] 70.8% | viability, T/C [2] 60.4% | viability, T/C [3] 68% | viability, T/C [4] 74.5% | viability, T/C [5] 77.7% | viability, T/C [6] 57.5% | viability, T/C [7] 67.6% | viability, T/C [8] 62.4% | viability, T/C [9] 55.2% | viability, T/C [10] 50.2% | viability, T/C [11] 73.8% | viability, T/C [12] 46% | viability, T/C [13] 44.3% | viability, T/C [14] 42.6% | viability, T/C [15] 42.8% | viability, T/C [16] 38.8% | viability, T/C [17] 46.9% | viability, T/C [18] 14.1% | viability, T/C [19] 28% | viability, T/C [20] 33.8% | viability, T/C [21] 28.8% | viability, T/C [22] 29.8% | viability, T/C [23] 26.5% | viability, T/C [24] 8.25% | viability, T/C [25] 20% | viability, T/C [26] 24.4% | viability, T/C [27] 15.6% | viability, T/C [28] 19.1% | viability, T/C [29] 17.4% | viability, T/C [31] 8.6%

CC1(C)CCC(Nc2ncc(C(F)(F)F)c(-c3c[nH]c4c(P(C)(C)=O)c(C#N)ccc34)n2)CN1 (stereo not drawn) + CC(Nc1ccc2c(c1)OCCn1cc(N3C(=O)OCC3C(F)F)nc1-2)C(N)=O
< 0.0316 µM: IC50 (second compound 0.316 µM) | IC50 (second compound 1 µM)
inactive: viability, T/C [1] 66.4% | viability, T/C [2] 70% | viability, T/C [3] 59.1% | viability, T/C [4] 73.5% | viability, T/C [5] 76.9% | viability, T/C [6] 48.8% | viability, T/C [7] 72.3% | viability, T/C [8] 68.3% | viability, T/C [9] 67.5% | viability, T/C [10] 72.3% | viability, T/C [11] 82.4% | viability, T/C [12] 47.6% | viability, T/C [13] 65.4% | viability, T/C [14] 68.3% | viability, T/C [15] 60.2% | viability, T/C [16] 68.7% | viability, T/C [17] 67% | viability, T/C [18] 36.2% | viability, T/C [19] 62% | viability, T/C [20] 65.2% | viability, T/C [21] 46.3% | viability, T/C [22] 47.3% | viability, T/C [23] 61.4% | viability, T/C [24] 34.2% | viability, T/C [25] 53.1% | viability, T/C [26] 42.6% | viability, T/C [27] 37.8% | viability, T/C [28] 36.2% | viability, T/C [29] 40.4% | viability, T/C [30] 17.1% | viability, T/C [31] 40.8% | viability, T/C [32] 30.8% | viability, T/C [33] 29.7% | viability, T/C [34] 29.5% | viability, T/C [35] 26.4% | viability, T/C [36] 6.28%
> 10 µM: IC50 (second compound 0.00316 µM) | IC50 (second compound 0.01 µM)
4.42 µM: IC50 (second compound 0.1 µM)
5.84 µM: IC50 (second compound 0.0316 µM)

CC(=O)c1c(C)c2cnc(Nc3ccc(N4CCNCC4)cn3)nc2n(C2CCCC2)c1=O + CC(Nc1ccc2c(c1)OCCn1cc(N3C(=O)OCC3C(F)F)nc1-2)C(N)=O
inactive: viability, T/C (second compound 0.00316 µM, first compound 0.000316 µM) 92.1% | viability, T/C (second compound 0.00316 µM, first compound 0.001 µM) 90.5% | viability, T/C (second compound 0.00316 µM, first compound 0.00316 µM) 82.9% | viability, T/C (second compound 0.00316 µM, first compound 0.01 µM) 95.3% | viability, T/C [1] 64.4% | viability, T/C [2] 86% | viability, T/C (second compound 0.01 µM, first compound 0.000316 µM) 83.8% | viability, T/C (second compound 0.01 µM, first compound 0.001 µM) 121% | viability, T/C (second compound 0.01 µM, first compound 0.00316 µM) 71.9% | viability, T/C (second compound 0.01 µM, first compound 0.01 µM) 75.3% | viability, T/C [7] 78.6% | viability, T/C [8] 69.8% | viability, T/C (second compound 0.0316 µM, first compound 0.000316 µM) 70.1% | viability, T/C (second compound 0.0316 µM, first compound 0.001 µM) 85.8% | viability, T/C (second compound 0.0316 µM, first compound 0.00316 µM) 76.1% | viability, T/C (second compound 0.0316 µM, first compound 0.01 µM) 83.6% | viability, T/C [13] 69.8% | viability, T/C [14] 67.1% | viability, T/C (second compound 0.1 µM, first compound 0.000316 µM) 84.7% | viability, T/C (second compound 0.1 µM, first compound 0.001 µM) 89.8% | viability, T/C (second compound 0.1 µM, first compound 0.00316 µM) 76% | viability, T/C (second compound 0.1 µM, first compound 0.01 µM) 65.7% | viability, T/C [19] 77% | viability, T/C [20] 54.5% | viability, T/C (second compound 0.316 µM, first compound 0.000316 µM) 59.4% | viability, T/C (second compound 0.316 µM, first compound 0.001 µM) 65.9% | viability, T/C (second compound 0.316 µM, first compound 0.00316 µM) 48.9% | viability, T/C (second compound 0.316 µM, first compound 0.01 µM) 56.7% | viability, T/C [25] 43.4% | viability, T/C [26] 60.1% | viability, T/C (second compound 1 µM, first compound 0.000316 µM) 39.9% | viability, T/C (second compound 1 µM, first compound 0.001 µM) 55.6% | viability, T/C (second compound 1 µM, first compound 0.00316 µM) 49.5% | viability, T/C (second compound 1 µM, first compound 0.01 µM) 41% | viability, T/C [31] 38.9% | viability, T/C [32] 32.6%
> 0.1 µM: IC50 (second compound 0.00316 µM) | IC50 (second compound 0.01 µM) | IC50 (second compound 0.0316 µM) | IC50 (second compound 0.1 µM) | IC50 (second compound 0.316 µM)
< 0.000316 µM: IC50 (second compound 1 µM)

CCCS(=O)(=O)Nc1ccc(F)c(C(=O)c2c[nH]c3ncc(-c4ccc(Cl)cc4)cc23)c1F + CC(Nc1ccc2c(c1)OCCn1cc(N3C(=O)OCC3C(F)F)nc1-2)C(N)=O
9.16 µM: IC50 (second compound 0.00316 µM)
5.04 µM: IC50 (second compound 0.316 µM)
inactive: viability, T/C [1] 99.3% | viability, T/C [2] 87.8% | viability, T/C [3] 108% | viability, T/C [4] 79.2% | viability, T/C [5] 103% | viability, T/C [6] 46.3% | viability, T/C [7] 99% | viability, T/C [8] 89.1% | viability, T/C [9] 98.5% | viability, T/C [10] 70.7% | viability, T/C [11] 87.8% | viability, T/C [12] 47% | viability, T/C [13] 80.3% | viability, T/C [14] 90.2% | viability, T/C [15] 102% | viability, T/C [16] 97.3% | viability, T/C [17] 98.7% | viability, T/C [18] 43% | viability, T/C [19] 83.2% | viability, T/C [20] 82.8% | viability, T/C [21] 97.7% | viability, T/C [22] 91.3% | viability, T/C [23] 74.2% | viability, T/C [24] 38.9% | viability, T/C [25] 69.3% | viability, T/C [26] 79.3% | viability, T/C [27] 66.9% | viability, T/C [28] 70.9% | viability, T/C [29] 55.8% | viability, T/C [30] 41.4% | viability, T/C [31] 48.5% | viability, T/C [32] 55.1% | viability, T/C [33] 69.4% | viability, T/C [34] 51.5% | viability, T/C [35] 49.1% | viability, T/C [36] 35.5%
3.21 µM: IC50 (second compound 1 µM)
6.95 µM: IC50 (second compound 0.1 µM)
8.53 µM: IC50 (second compound 0.0316 µM)
9.58 µM: IC50 (second compound 0.01 µM)
